According to the supplement of paper PMC10307832:

Key:
Experiment in all cases: relative viability (nuclei count vs DMSO), 5 days (fraction); higher = more cells survive
[1] = compound: C[C@@]1(C(=O)Nc2ccc(F)nc2)CCCN1c1nc(Nc2cc(C3CC3)n[nH]2)c2cccn2n1 + CCNC(=O)c1noc(-c2cc(C(C)C)c(O)cc2O)c1-c1ccc(CN2CCOCC2)cc1 [Luminespib] (partner 0.01 µM)
In short: (§1)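 A single step with final 0.05% Triton X-100, 1% formaldehyde and 1 ug/ml Hoechst fixed the cells and stained nuclei 5 days after treatment. Lung cancer cell lines in 1536-well plates had been treated by pin tool the day after seeding with one drug alone or a fixed anchor-drug dose plus five library-drug doses (not always all listed) in √10 steps, and nuclei were counted on 4× images. Relative viability is the ratio of nuclei in treated wells to nuclei in vehicle wells, taken as the median of duplicate plates.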

[2] = compound: C[C@@]1(C(=O)Nc2ccc(F)nc2)CCCN1c1nc(Nc2cc(C3CC3)n[nH]2)c2cccn2n1 + Cc1cc(Nc2cc(N3CCN(C)CC3)nc(Sc3ccc(NC(=O)C4CC4)cc3)n2)n[nH]1 [Tozasertib] (partner 0.1 µM)
In short: as §1

[3] = compound: C[C@@]1(C(=O)Nc2ccc(F)nc2)CCCN1c1nc(Nc2cc(C3CC3)n[nH]2)c2cccn2n1 + O=C(c1cc(Cc2n[nH]c(=O)c3ccccc23)ccc1F)N1CCN(C(=O)C2CC2)CC1 [Olaparib] (partner 8 µM)
In short: as §1

[4] = compound: CC1(C)CNc2cc(NC(=O)c3cccnc3NCc3ccncc3)ccc21 [Motesanib] + O=C(CCCCCCC(=O)Nc1ccccc1)NO [Vorinostat] (partner 1 µM)
In short: as §1

| Cell Line | relative viability ([1]; first compound 0.04 µM) | relative viability ([1]; first compound 0.1265 µM) | relative viability ([1]; first compound 0.4 µM) | relative viability ([1]; first compound 1.265 µM) | relative viability ([2]; first compound 0.04 µM) | relative viability ([2]; first compound 0.1265 µM) | relative viability ([2]; first compound 0.4 µM) | relative viability ([2]; first compound 1.265 µM) | relative viability ([3]; first compound 0.04 µM) | relative viability ([3]; first compound 0.1265 µM) | relative viability ([3]; first compound 0.4 µM) | relative viability ([3]; first compound 1.265 µM) | relative viability ([4]; first compound 0.01 µM) | relative viability ([4]; first compound 0.03162 µM) | relative viability ([4]; first compound 0.1 µM) | relative viability ([4]; first compound 0.3162 µM) | relative viability ([4]; first compound 1 µM) |
| --- | --- | --- | --- | --- | --- | --- | --- | --- | --- | --- | --- | --- | --- | --- | --- | --- | --- |
| NCI-H2342 | 0.63 | 0.606 | 0.505 | 0.499 | 0.534 | 0.453 | 0.346 | 0.499 | 0.438 | 0.449 | 0.336 | 0.329 | 0.702 | 0.77 | 0.715 | 0.704 | 0.751 |
| HCC-15 | 0.481 | 0.364 | 0.55 | 0.417 | 0.403 | 0.337 | 0.119 | 0.169 | 0.663 | 0.614 | 0.611 | 0.635 | 0.883 | 0.843 | 0.866 | 0.875 | 0.877 |
| A-427 | 1.03 | 0.957 | 0.639 | 0.881 | 0.234 | 0.192 | 0.173 | 0.198 | 0.666 | 0.663 | 0.603 | 0.529 | 0.96 | 0.87 | 0.913 | 0.89 | 0.88 |
| NCI-H2228 | 0.121 | 0.121 | 0.15 | 0.116 | 0.258 | 0.248 | 0.235 | 0.178 | 0.767 | 0.503 | 0.426 | 0.32 | 0.667 | 0.539 | 0.737 | 0.528 | 0.612 |
| NCI-H1734 | 0.201 | 0.161 | 0.159 | 0.157 | 0.234 | 0.246 | 0.26 | 0.242 | 0.506 | 0.405 | 0.385 | 0.436 | 0.741 | 0.821 | 0.813 | 0.805 | 0.865 |
| PC-14 | 0.164 | – | 0.12 | 0.175 | 0.572 | 0.587 | 0.515 | 0.464 | 0.368 | 0.335 | 0.319 | 0.222 | 0.702 | 0.867 | 0.778 | 0.806 | 0.771 |
| NCI-H1915 | 0.816 | 0.736 | 0.781 | 0.862 | 0.473 | 0.418 | 0.407 | 0.415 | 0.266 | 0.257 | 0.242 | 0.257 | 0.603 | 0.489 | 0.479 | 0.544 | 0.527 |
| NCI-H1666 | 0.915 | 0.932 | 0.825 | 0.812 | 0.623 | 0.558 | 0.465 | 0.415 | 0.707 | 0.73 | 0.713 | 0.724 | 0.926 | 0.978 | 1.06 | 1 | 1.02 |
| HCC-366 | – | – | – | – | 0.677 | 0.102 | 0.0503 | 0.637 | 0.364 | 0.256 | 0.254 | 0.215 | 0.382 | 0.388 | 0.443 | 0.375 | 0.308 |
| SK-MES-1 | 0.666 | 0.664 | 0.763 | 0.609 | 0.979 | 0.968 | 0.8 | 0.207 | 0.718 | 0.702 | 0.557 | 0.373 | 1.13 | 1.12 | 1.25 | 1.16 | 1.16 |
| SW 1573 | 0.224 | 0.185 | 0.182 | 0.143 | 0.15 | 0.16 | 0.172 | 0.182 | 0.38 | 0.409 | 0.341 | 0.253 | 0.77 | 0.799 | 0.738 | 0.834 | 1.04 |
| NCI-H661 | 0.973 | 1.06 | 1.05 | 1.02 | 0.37 | 0.345 | 0.369 | 0.338 | 0.742 | 0.849 | 0.778 | 0.634 | 0.775 | 0.737 | 0.766 | 0.797 | 0.883 |
| PC-3 [JPC-3] | 0.642 | 0.646 | 0.561 | 0.8 | 0.915 | 0.882 | 0.843 | 0.887 | 1.23 | 0.798 | 1.04 | 1.1 | 0.686 | 0.71 | 0.774 | 0.828 | 0.789 |
| NCI-H1623 | 0.47 | 0.368 | 0.345 | 0.403 | 0.391 | 0.397 | 0.349 | 0.371 | – | – | – | – | – | – | – | – | – |
| Calu-6 | – | – | – | – | – | – | – | – | 0.612 | 0.644 | 0.543 | 0.384 | – | – | – | – | – |
| LC-2-ad | 0.97 | 0.859 | 0.719 | 0.599 | 0.403 | 0.393 | 0.288 | 0.296 | 0.676 | 0.664 | 0.581 | 0.492 | 0.694 | 0.694 | 0.811 | 0.808 | 0.709 |
| CAL-12T | 0.446 | 0.391 | 0.487 | 0.116 | 0.249 | 0.27 | 0.275 | 0.189 | 0.729 | 0.751 | 0.583 | 0.449 | 0.797 | 0.847 | 0.692 | 0.795 | 0.86 |
| RERF-LC-KJ | 1.15 | 0.964 | 1.09 | 0.717 | 0.544 | 0.506 | 0.33 | 0.236 | 0.892 | 0.858 | 0.737 | 0.345 | 0.625 | 0.711 | 0.745 | 0.808 | 0.789 |
| NCI-H1650 | 0.215 | 0.194 | 0.199 | 0.181 | 0.345 | 0.29 | 0.258 | 0.255 | 0.692 | 0.846 | 0.678 | 0.729 | 0.642 | 0.6 | 0.714 | 0.67 | 0.571 |
| BEN | 0.381 | 0.487 | 0.641 | 0.325 | 0.551 | 0.529 | 0.517 | 0.501 | 1.09 | 1.14 | 0.97 | 0.988 | 0.543 | 0.56 | 0.637 | 0.654 | 0.772 |
